Data set [1] relates to Human immunodeficiency virus 1. The data set is described as follows: Antiviral activity against HIV1 MN infection in human C8166 cells after 2 days by syncitium-forming assay. Format: functional, organism-based.
The nature of data set [2]: Selectivity index, ratio of EC50 for HIV1 MN infection in human C8166 cells to TC50 for human C8166 cells. Format: functional.
In data set [3] the test system is Human immunodeficiency virus 1. Nature of the data set: Antiviral activity against HIV1 MN infected in human C8166 cells assessed as reduction in Ag gp120 production by ELISA. Format: functional, organism-based. The note with it: Human immunodeficiency virus 1, MN. On the technique in general: An ELISA detects its analyte on a solid surface through an enzyme-linked reagent.

The subject of the next data set is C8166. Nature of the data set: Cytotoxicity against human C8166 cells at 250 ug/ml by XTT-formazan method. Format: cell-based. A general note: Formazan colour is commonly taken as a measure of viable cells.
Data set [4] is described as follows: Cytotoxicity against human C8166 cells by XTT-formazan method. The following applies: read-out: TC50 (the source's name). Format: cell-based.

Values after ≈ are worked out from the molar mass of the structure shown. Active and inactive are the calls of the source. The calls are words filed in the database; no cut-off is given here.

Take `COc1c(-c2ccc(O)c(O)c2)oc2cc(O[C@@H]3O[C@H](CO[C@@H]4O[C@@H](C)[C@H](O)[C@@H](O)[C@H]4O)[C@@H](O)[C@H](O)[C@H]3O)cc(O)c2c1=O`: in data set [1], the outcome was inactive.
Take `CC(=O)OC[C@H]1O[C@@H](Oc2ccc(C(=O)/C=C/c3ccc(O)c(O)c3)c(O)c2O)[C@H](O)[C@@H](OC(C)=O)[C@@H]1OC(C)=O`: the “Selectivity Index” value in data set [2] is given as 12.5. For the same molecule, in data set [3], the EC50 turned out to be 20 µg/mL (≈ 34.7 µM). The Activity entry with C8166 is given as “Non-toxic”.
With `O=C(/C=C/c1ccc(O)cc1)OC[C@H]1O[C@@H](Oc2ccc(C(=O)/C=C/c3ccc(O)cc3)c(O)c2O)[C@H](O)[C@@H](O)[C@@H]1O`, in data set [2], the “Selectivity Index” value stood at 12.5. In addition, the CC50 in data set [4] came to 250 µg/mL (≈ 431 µM). In data set [3], the concentration giving a half-maximal response (EC50) stood at 50 µg/mL (≈ 86.1 µM).
Consider `COc1ccc(-c2oc3cc(O[C@@H]4O[C@H](CO[C@@H]5O[C@@H](C)[C@H](O)[C@@H](O)[C@H]5O)[C@@H](O)[C@H](O)[C@H]4O[C@@H]4O[C@H](CO)[C@@H](O)[C@H](O)[C@H]4O)cc(O)c3c(=O)c2OC)cc1O`, for which the outcome in data set [1] was inactive.
In the case of `CC(=O)O[C@H]1[C@H](O)[C@@H](O)[C@H](Oc2ccc(C(=O)/C=C/c3ccc(O)c(O)c3)c(O)c2O)O[C@@H]1COC(=O)/C=C/c1ccc(O)cc1`, the “Selectivity Index” value in data set [2] was more than 10. Besides, the CC50 in data set [4] was found to be 100 µg/mL (≈ 157 µM). Also, the EC50 in data set [3] came to 10 µg/mL (≈ 15.7 µM).
As to `COc1ccc(-c2oc3cc(O[C@@H]4O[C@H](CO[C@@H]5O[C@@H](C)[C@H](O)[C@@H](O)[C@H]5O)[C@@H](O)[C@H](O)[C@H]4O)cc(O)c3c(=O)c2OC)cc1O`, the outcome in data set [1] was inactive.
In the case of `COc1ccc(-c2oc3cc(O[C@@H]4O[C@H](CO[C@@H]5O[C@@H](C)[C@H](O)[C@@H](O)[C@H]5O[C@@H]5O[C@@H](C)[C@H](O)[C@@H](O)[C@H]5O)[C@@H](O)[C@H](O)[C@H]4O)cc(O)c3c(=O)c2OC)cc1O`, the result in data set [1] was inactive.

Usually EC50 stands for the concentration giving half of the maximal effect.
